The results in this text go back to patent US12655365B2, “Low foam cleaning compositions” (ECOLAB USA INC., priority 2020, dated 2026).

Series [1] relates to E. coli (ATCC 11229). As to the kind of experiment: Antimicrobial evaluation, log reduction of microbial population. The settings on record: pH 7, 500 ppm hard water, 120° F., about 30 seconds contact. The format is cell-based. Here is the method:
The quaternary ammonium compounds were tested for antimicrobial efficacy against exemplary bacteria (E. coli and S. aureus) under different pH conditions. For this evaluation, various test solutions were prepared in 500 ppm hard water at a temperature of 120° F. The microbial population was contacted with the test composition for about 30 seconds. The microbial population was measured before and after the contacting step and the difference was taken to identify the log reduction. The quaternary ammonium compounds tested, their concentrations, and the corresponding log reductions are shown below in Table 2.

Series [2] is described as follows: Foam evaluation (foam height). The format is physicochemical. The settings on record: 1200 ppm solution in water; 120° F.; additive with quaternary ammonium compound. Here is the method:
The foaming properties of the quaternary ammonium compounds were evaluated and then tested for reduced foaming when traditional defoaming compounds were included. The foam height was determined with the following procedural steps: • 1. A 1200 ppm solution of the test composition was mixed in water. • 2. The foam height was measured immediately after mixing. • 3. The solution was agitated and the foam height was measured after 15 seconds. • 4. The solution was agitated and the solution was measured after another 45 seconds of agitation (60 seconds total since the solution was mixed). The temperature of the solution was at 120° F. for the duration of the test. As can been seen in FIGS. 1A and 1B, the various quaternary ammonium compounds tested provided significant foam height after mixing at after 15 seconds of agitation. The traditional defoamers had varying impacts on the foaming properties of the quaternary ammonium compounds.
The ability of the polycarboxylic acids and/or salts to control the foam of different quaternary ammonium compounds was also tested. The same procedural steps outlined above were followed. […].

With `CCCCCCCCCC[N+](C)(C)CCCCCCCCCC.[Cl-]` [Bardac 2250, didecyl dimethyl ammonium chloride], the figures for the log reduction in series [1] (30 ppm), in series [1] (40 ppm) and in series [1] (50 ppm) were 3.33, 5.02 and 6.71, respectively.

Turning to `CC(=O)O` [acetate], the “reduction to the foaming of quaternary ammonium compounds” value in series [2] is recorded as “did not”. On the same count and under the same terms, under `O=C([O-])c1ccccc1.[Na+]` [sodium benzoate] stands “did not”; under `O=S(=O)([O-])[O-].[Na+].[Na+]` [sodium sulfate], “did not”.
